# Data from ChEMBL document CHEMBL1143446, “Azaflavones compared to flavones as ligands to the benzodiazepine binding site of brain GABA(A) receptors” (Bioorg Med Chem Lett, 2008).
# Columns and labels:
# [1] = Displacement of [3H]flumazenil from GABAA in rat cortical tissue
# Rattus norvegicus [2] = organism: Rattus norvegicus; assay: Selectivity ratio of Ki for rat GABAA alpha-2-beta-3-gamma-2 receptor to Ki for GABAA alpha-1-beta-3-gamma-2 receptor
# Rattus norvegicus [3] = organism: Rattus norvegicus; assay: Selectivity ratio of Ki for rat GABAA alpha-3-beta-3-gamma-2 receptor to Ki for GABAA alpha-1-beta-3-gamma-2 receptor
# [4] = target: GABA-A receptor; alpha-1/beta-3/gamma-2 (Rattus norvegicus); assay: Displacement of [3H]flumazenil in rat GABAA alpha-1-beta-3-gamma-2 receptor expressed in HEK293 cells
# [5] = target: GABA-A receptor; alpha-2/beta-3/gamma-2 (Rattus norvegicus); assay: Displacement of [3H]flumazenil in rat GABAA alpha-2-beta-3-gamma-2 receptor expressed in HEK293 cells
# [6] = target: Gamma-aminobutyric acid receptor subunit alpha-3 (Rattus norvegicus, UniProt P18508+P20236+P63079); assay: Displacement of [3H]flumazenil in rat GABAA alpha-3-beta-3-gamma-2 receptor expressed in HEK293 cells; type: cell-based
# Sequence of Gamma-aminobutyric acid receptor subunit alpha-3 (P20236 whole entry, one chain of several): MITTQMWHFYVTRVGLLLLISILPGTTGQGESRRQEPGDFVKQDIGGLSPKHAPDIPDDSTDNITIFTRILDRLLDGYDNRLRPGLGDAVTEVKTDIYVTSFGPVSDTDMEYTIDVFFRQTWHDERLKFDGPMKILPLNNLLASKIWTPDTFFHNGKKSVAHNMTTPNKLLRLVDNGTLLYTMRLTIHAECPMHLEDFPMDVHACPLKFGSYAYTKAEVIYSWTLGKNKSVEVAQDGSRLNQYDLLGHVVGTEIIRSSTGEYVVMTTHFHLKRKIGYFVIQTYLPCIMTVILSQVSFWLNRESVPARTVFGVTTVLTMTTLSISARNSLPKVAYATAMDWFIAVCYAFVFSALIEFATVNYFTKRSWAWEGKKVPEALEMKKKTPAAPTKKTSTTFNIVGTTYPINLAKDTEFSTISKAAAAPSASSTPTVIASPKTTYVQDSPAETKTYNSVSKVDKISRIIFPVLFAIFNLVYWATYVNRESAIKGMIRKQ
# [7] = target: GABA A receptor alpha-5/beta-3/gamma-2 (Rattus norvegicus, UniProt P18508+P19969+P63079); assay: Displacement of [3H]flumazenil in rat GABAA alpha-5-beta-3-gamma-2 receptor expressed in HEK293 cells; type: cell-based
# Sequence of GABA A receptor alpha-5/beta-3/gamma-2 (P18508 whole entry): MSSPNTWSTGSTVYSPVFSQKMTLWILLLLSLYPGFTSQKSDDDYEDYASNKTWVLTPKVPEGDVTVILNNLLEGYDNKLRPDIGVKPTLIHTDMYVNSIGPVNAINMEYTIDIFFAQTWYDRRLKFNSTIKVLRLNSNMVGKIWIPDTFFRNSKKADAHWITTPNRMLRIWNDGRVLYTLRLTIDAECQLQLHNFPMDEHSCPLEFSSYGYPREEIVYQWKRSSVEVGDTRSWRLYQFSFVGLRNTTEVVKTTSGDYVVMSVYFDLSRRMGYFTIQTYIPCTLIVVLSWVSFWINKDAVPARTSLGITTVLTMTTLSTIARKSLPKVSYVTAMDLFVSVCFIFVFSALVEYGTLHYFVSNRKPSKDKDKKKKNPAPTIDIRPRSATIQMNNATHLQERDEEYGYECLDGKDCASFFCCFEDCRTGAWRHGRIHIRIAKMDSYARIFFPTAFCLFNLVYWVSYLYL
# Sequence of GABA A receptor alpha-5/beta-3/gamma-2 (P19969 whole entry): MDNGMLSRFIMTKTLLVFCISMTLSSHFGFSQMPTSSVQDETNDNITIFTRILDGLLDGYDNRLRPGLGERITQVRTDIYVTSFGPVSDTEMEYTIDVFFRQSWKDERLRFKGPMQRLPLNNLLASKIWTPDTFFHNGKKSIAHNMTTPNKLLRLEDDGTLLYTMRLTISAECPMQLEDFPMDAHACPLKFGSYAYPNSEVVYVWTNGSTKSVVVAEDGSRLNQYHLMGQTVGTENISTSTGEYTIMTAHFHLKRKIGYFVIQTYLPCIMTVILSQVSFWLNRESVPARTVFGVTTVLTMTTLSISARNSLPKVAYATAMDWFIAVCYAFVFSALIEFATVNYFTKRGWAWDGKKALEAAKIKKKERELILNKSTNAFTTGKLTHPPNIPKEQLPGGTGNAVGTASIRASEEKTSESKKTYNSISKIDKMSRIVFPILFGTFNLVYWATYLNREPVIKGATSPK
# Sequence of GABA A receptor alpha-5/beta-3/gamma-2 (P63079 whole entry): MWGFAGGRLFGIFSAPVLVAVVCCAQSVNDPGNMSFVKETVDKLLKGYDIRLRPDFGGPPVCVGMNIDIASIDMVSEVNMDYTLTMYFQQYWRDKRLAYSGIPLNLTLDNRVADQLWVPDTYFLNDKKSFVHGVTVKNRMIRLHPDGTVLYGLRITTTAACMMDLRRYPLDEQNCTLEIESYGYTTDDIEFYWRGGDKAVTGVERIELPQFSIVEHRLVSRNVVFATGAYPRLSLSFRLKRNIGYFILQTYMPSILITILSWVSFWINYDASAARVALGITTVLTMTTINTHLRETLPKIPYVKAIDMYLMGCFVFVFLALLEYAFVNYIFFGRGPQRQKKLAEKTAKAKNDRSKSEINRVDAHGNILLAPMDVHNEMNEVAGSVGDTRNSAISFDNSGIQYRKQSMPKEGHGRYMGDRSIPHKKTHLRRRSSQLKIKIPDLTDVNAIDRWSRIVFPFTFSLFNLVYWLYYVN
SMILES,Ki [1] [nM],Selectivity ratio (Rattus norvegicus [2]),Selectivity ratio (Rattus norvegicus [3]),Ki [4] [nM],Ki [5] [nM],Ki [6] [nM],Ki [7] [nM]
Cc1ccc2[nH]c(-c3cc(Br)ccc3O)cc(=O)c2c1,22,5,8,–,–,–,–
COc1ccc(Br)cc1-c1cc(=O)c2cc(C)ccc2[nH]1,730,–,–,–,–,–,–
Cc1ccc2[nH]c(-c3cc(Cc4ccccc4)ccc3O)cc(=O)c2c1,2,5,8,1.2,18,31,7.3
Cc1ccc2oc(-c3cc(Cc4ccccc4)ccc3O)cc(=O)c2c1,0.6,–,–,0.8,19,11,2.4
COc1ccc(Br)cc1-c1cc(=O)c2cc(C)ccc2o1,> 1500,–,–,–,–,–,–
Cc1ccc2c(c1)c(=O)cc(-c1cc(Br)ccc1O)n2C,1100,5,8,–,–,–,–
Cc1ccc2nc(-c3cc(Br)ccc3O)cc(N3CCOCC3)c2c1,840,–,–,–,–,–,–
Cc1ccc2nc(-c3cc(Br)ccc3O)cc(O)c2c1,–,–,–,39,120,99,–
Cc1ccc2nc(-c3cc(Cc4ccccc4)ccc3O)cc(N3CCOCC3)c2c1,400,–,–,–,–,–,–
Cc1ccc2oc(-c3cc(Br)ccc3O)cc(=O)c2c1,0.9,5,8,–,–,–,–
CCc1ccc2[nH]c(-c3ccccc3)cc(=O)c2c1,1200,–,–,–,–,–,–
CCc1ccc2oc(-c3ccccc3)cc(=O)c2c1,180,–,–,–,–,–,–
